Test results from patent publication US20200054608A1, “ALPHA ADRENERGIC AGONISTS FOR THE TREATMENT OF TISSUE TRAUMA” (Allergan, Inc., priority 2013, published 2020).

What was measured:
SKH1 hairless mice [1] = assay: UVB-induced sunburn model: histological examination of skin samples 48 hr following UVB exposure; format: in vivo; conditions: for outcome of healing (overall healing, histology) / mice with overall epidermal healing fair to good: 48 hr; for outcome of healing (overall healing, histology): hydrochloride; for mice with overall epidermal healing fair to good: vehicle 0%
Experimental: (§1) A xenon arc lamp (Newport Corp, USA) was used as a source of UVB. SKH1 hairless mice, lying on their stomachs with their left sides covered, were exposed to 120 mJ/cm2 UVB radiation. Regions of back skin were treated topically with oxymetazoline hydrochloride 0.5% gel at 20 min, 4 hr or 8 hr post-UVB. An additional group had the vehicle applied topically at 20 min post UVB exposure. Erythema on the exposed and unexposed back was measured using a chromameter (Konica Minolta) at 2 and 4 hr post-UVB exposure. Skin samples were collected 48 hr following UVB exposure and examined histologically to assess the extent of injury.

SKH1 hairless mice [2] = assay: UVB-induced sunburn model: erythema on back skin measured with a chromameter; format: in vivo
Experimental: as §1

Q: oxymetazoline hydrochloride was tested. Which epidermal separation (SKH1 hairless mice [1]; 0.5% topical applied 20 minutes post UVB, 48 hours, n=6) did it give?
A: The epidermal separation was “reduced the occurrence and/or severity of epidermal separation”.

Q: And the “outcome of healing (overall healing, histology)” value (SKH1 hairless mice [1]; 0.5% topical applied 20 minutes post UVB, vs vehicle controls)?
A: Its value is “potentially improved the outcome”.

Q: What about the “outcome of healing (overall healing, histology)” value (SKH1 hairless mice [1]; 0.5% topical applied 20 minutes post UVB, vs vehicle controls, listed as oxymetazoline) of the same substance?
A: The value was “slightly improved the outcome of healing”.

Q: And the epidermal separation (SKH1 hairless mice [1]; 0.5% topical applied 4 hours post UVB, 48 hours, n=6)?
A: The epidermal separation was “reduced the occurrence and/or severity of epidermal separation”.

Q: And the “outcome of healing (overall healing, histology)” value (SKH1 hairless mice [1]; 0.5% topical applied 4 hours post UVB, vs concurrent and historical vehicle controls)?
A: The value was “more positive outcome”.

Q: What about the “outcome of healing (overall healing, histology)” value (SKH1 hairless mice [1]; 0.5% topical applied 4 hours post UVB, vs concurrent and historical vehicle controls, listed as oxymetazoline) of the same substance?
A: The value was “improved the outcome of healing”.

Q: And the “adaptive response in histological sections (epidermal proliferation, adaptive hyperplasia)” value (SKH1 hairless mice [1]; 0.5% topical applied 8 hours following injury, skin collected at 48 hours, vs vehicle-treated)?
A: Its value is “greater degree of a positive adaptive response”.

Q: What about the “epidermal hyperplasia (adaptive healing response)” value (SKH1 hairless mice [1]; 0.5% topical applied 8 hours following the injury, 48 hours, n=6) of the same substance?
A: The value was “resulted in more individuals who had progressed to advanced healing”.

Q: And the epidermal separation (SKH1 hairless mice [1]; 0.5% topical applied 8 hours post UVB, 48 hours, n=6)?
A: The epidermal separation was “reduced the occurrence and/or severity of epidermal separation”.

Q: And the “outcome of healing (overall healing, histology)” value (SKH1 hairless mice [1]; 0.5% topical applied 8 hours post UVB, vs concurrent and historical vehicle controls)?
A: Its value is “more positive outcome”.

Q: What about the “outcome of healing (overall healing, histology)” value (SKH1 hairless mice [1]; 0.5% topical applied 8 hours post UVB, vs concurrent and historical vehicle controls, listed as oxymetazoline) of the same substance?
A: Its value is “improved the outcome of healing”.

Q: What about the “mice with overall epidermal healing fair to good” value (“mice” below) (SKH1 hairless mice [1]; 0.5% topical applied at 20 minutes post UVB, n=6) of the same substance?
A: Its value is 33%.

Q: And the “mice” value (SKH1 hairless mice [1]; 0.5% topical applied at 4 hours post UVB, n=6)?
A: Its value is 50%.

Q: And the “mice” value (SKH1 hairless mice [1]; 0.5% topical applied at 8 hours post UVB, n=6)?
A: Its value is 67%.

Q: And the inhibition of erythema (SKH1 hairless mice [2]; 0.5% topical gel applied 20 minutes following 120 mJ/cm2 UVB, 2 hr timepoint, p<0.001)?
A: The inhibition of erythema was “almost completely inhibited the erythema”.

Q: And the inhibition of erythema (SKH1 hairless mice [2]; 0.5% topical gel applied 20 minutes following UVB, 4 hr post-UVB exposure)?
A: The inhibition of erythema was “no inhibition of the erythema”.
